The results in this text go back to US8680111B2 (Pfizer Inc., priority 2012, dated 2014).

The structures appear in SMILES notation. pIC50, pKi: −log10 of the molar value. Where two headings read alike, the source gives them in different places.

For series [1], the target named is T1, WT EML4-ALK (NIH-3T3 EML4-ALK wt v1 cells) (Homo sapiens, UniProt Q9UM73).
T1 construct: expressed in transfected cells; the other entry of the earlier key: EML4 (Q9HC35, Echinoderm microtubule-associated protein-like 4)
Kind of series: Cellular phospho-ALK (Tyr1604) ELISA assay for WT EML4-ALK. The format is cell-based. The settings on record: 1 hour. A general note: ELISA stands for enzyme-linked immunosorbent assay.

Series [2] concerns the target T2, human recombinant L1196M ALK kinase domain (amino acids 1093-1411) (Homo sapiens, UniProt Q9UM73, L1196M).
T2 construct: ALK kinase domain (amino acids 1093-1411); made in house
Description: L1196M mutant ALK enzyme assay (microfluidic mobility shift). In kind it is biochemical.

The target of series [3] is T3, L1196M EML4-ALK (NIH-3T3 EML4-ALK v1 L1196M cells) (Homo sapiens, UniProt Q9UM73, L1196M).
T3 construct: expressed in transfected cells; the other entry of the earlier key: EML4 (Q9HC35, Echinoderm microtubule-associated protein-like 4)
Description: Cellular phospho-ALK (Tyr1604) ELISA assay for L1196M EML4-ALK. In kind it is cell-based.

The target of series [4] is T4, human recombinant wild-type ALK kinase domain (amino acids 1093-1411) (Homo sapiens, UniProt Q9UM73).
T4 construct: ALK kinase domain (amino acids 1093-1411); made in house
Description: Wild-type ALK enzyme assay (microfluidic mobility shift). The format is biochemical. The settings on record: ATP 60 μM, competitive inhibition fit.
Description: The reactions were incubated for 1 h at room temperature, stopped by the addition of 0.1 M EDTA, pH 8, and the extent of reactions (˜15-20% conversion with no inhibitor) was determined after electrophoretic separation of the fluorescently labeled peptide substrate and phosphorylated product on an LabChip EZ Reader II (Caliper Life Sciences, Hopkinton, Mass.).

The conditions of series [5]: cc_pd bond.
For series [6] the following is noted: 12-membered ring.
Setting [7] is: read-out: ELISA assay for WT EML4-ALK (IC50).
Setting [8] is: ATP 60 μM, 0.5 nM enzyme, competitive inhibition fit, read-out: L1196M ALK enzyme assay (Ki).
The mark [9] stands for this setting: NIH-3T3 EML4-ALK v1 L1196M cells, 1 hour, phospho-ALK (Tyr1604), read-out: ELISA assay for L1196M EML4-ALK (IC50).
The mark [10] stands for this setting: read-out: WT ALK enzyme assay (Ki).

With `C[C@H]1Oc2nc(cnc2N)-c2c(C(N)=O)noc2CN(C)C(=O)c2ccc(F)cc21` [Example 72, (10R)-7-amino-12-fluoro-10,16-dimethyl-15-oxo-10,15,16,17-tetrahydro-8,4-(azeno)[1,2]oxazolo[4,5-h][2,5,11]benzoxadiazacyclotetradecine-3-carboxamide], the pIC50 – broadly, the negative decadic logarithm of the IC50, by convention in mol/L – in series [1] (setting [7]) is 6.46; in series [3] (setting [9]), 5.37. Further, the pKi (as a rule, −log10 of the Ki, conventionally taken in molar units) in series [2] (setting [8]) is 7.55; in series [4] (setting [10]), 8.29. Besides, under “cc_pd bond, 12-membered ring, Pd(OAc)2/cataCXium A/KOAc/PivOH, DMA, […], 120.0 °C”, the ring closure, yield after HPLC came to 12%.

`C[C@H]1Oc2nc(cnc2N)-c2c(nn(C)c2C#N)CN(C)C(=O)c2c(F)cc(F)cc21` [Example 101, (10R)-7-amino-12,14-difluoro-2,10,16-trimethyl-15-oxo-10,15,16,17-tetrahydro-2H-8,4-(azeno)pyrazolo[4,3-h][2,5,11]benzoxadiazacyclotetradecine-3-carbonitrile]: the negative-log IC50 (pIC50) in series [1] (setting [7]) is 9.04; in series [3] (setting [9]) it was 8.06. Besides, the pKi is 9.39 in series [2] (setting [8]) and 9.92 in series [4] (setting [10]). The same molecule returned a ring closure, yield of all isomers in series [5] (from C[C@@H](Oc1nc(Br)cnc1N)c1cc(F)cc(F)c1C(=O)N(C)Cc1cc(C#N)n(C)n1, Pd(OAc)2/cataCXium A/KOAc, tert-amyl alcohol, 50.0 mM, 120.0 °C, 2.0 h) of 53%. In series [6] (cc_pd bond, Pd(OAc)2/cataCXium A/KOAc, t-amyl alcohol, 50.0 mM, 120.0 °C), the ring closure, isolated yield turned out to be 53%.

With `Cc1cnc2nc3c(n2c1)-c1cnc(N)c(c1)O[C@H](C)c1cc(F)ccc1C(=O)N(C)C3` [Example 57, (5R)-8-amino-3-fluoro-5,14,19-trimethyl-18,19-dihydro-7,11-(metheno)-pyrimido[2′,1′:2,3]imidazo[4,5-h][2,5,11]benzoxadiazacyclotetradecin-20(5H)-one], the pIC50 was 8.17 in series [1] (ELISA assay for WT EML4-ALK (IC50)) and 6.44 in series [3] (ELISA assay for L1196M EML4-ALK (IC50)). Moreover, the pKi in series [2] (L1196M ALK enzyme assay (Ki)) was 8.70; in series [4] (WT ALK enzyme assay (Ki)), 9.85. The ring closure, isolated yield in series [6] (amide bond, HATU/DIEA, DMF, 25.1 mM) came out at 52%.

`Cc1nn(C)c2c1-c1cnc(N)c(n1)OC(C)c1cc(F)ccc1C(=O)N(C)C2` (stereo not drawn) came in with a ring closure, yield of all isomers in series [5] (from Cc1nn(C)c(CN(C)C(=O)c2ccc(F)cc2C(C)Oc2nc(Br)cnc2N)c1Br, Pd(OAc)2 / di(1-adamantyl)-n-butylphosphine, bis(pinacolato)diboron, CsF, MeOH, 42.4 mM, 100.0 °C, 8.5 h, 2 steps) of 6%.

Consider `C[C@H]1Oc2nc(cnc2N)-c2c(C#N)noc2CN(C)C(=O)c2ccc(F)cc21` [Example 73, (10R)-7-amino-12-fluoro-10,16-dimethyl-15-oxo-10,15,16,17-tetrahydro-8,4-(azeno)[1,2]oxazolo[4,5-h][2,5,11]benzoxadiazacyclotetradecine-3-carbonitrile], for which the pIC50 in series [1] (setting [7]) is 7.89; in series [3] (setting [9]) it was 6.77. The pKi was 8.62 in series [2] (setting [8]) and 9.48 in series [4] (setting [10]). Moreover, the ring closure, yield after HPLC (cc_pd bond, 12-membered ring, Pd(OAc)2/cataCXium A/KOAc/PivOH, DMA, 49.9 mM, 120.0 °C) worked out at 21%.

Turning to `C[C@H]1Oc2nc(cnc2N)-c2cn(C)nc2CN(C)C(=O)c2ccc(F)cc21` [Example 56, (10R)-7-amino-12-fluoro-2,10,16-trimethyl-16,17-dihydro-2H-8,4-(azeno)pyrazolo[4,3-h][2,5,11]benzoxadiazacyclotetradecin-15(10H)-one], the pIC50 in series [1] (setting [7]) is 8.74; in series [3] (setting [9]), 7.46. The results for the pKi in series [2] (setting [8]) and in series [4] (setting [10]) were 9.06 and 9.70, respectively. Moreover, the ring closure, isolated yield in series [6] (cc_pd bond, Pd(OAc)2/cataCXium A/KOAc, t-amyl alcohol, 69.8 mM, 120.0 °C) turned out to be 6%.

Take `C[C@H]1Oc2nc(cnc2N)-c2c(nc3ccc(C#N)cn23)CN(C)C(=O)c2ccc(F)cc21`: the ring closure, yield after HPLC (cc_pd bond, 12-membered ring, cataCXium/t-AmOH/KOAc, DMAc, 11.9 mM, 110.0 °C) is 12%.

Regarding `CCc1onc2c1-c1cnc(N)c(c1)O[C@H](C)c1cc(F)ccc1C(=O)N(C)C2` [Example 82, (10R)-7-amino-3-ethyl-12-fluoro-10,16-dimethyl-16,17-dihydro-8,4-(metheno)[1,2]oxazolo[4,3-h][2,5,11]benzoxadiazacyclotetradecin-15(10H)-one], the pIC50 was 7.95 in series [1] (setting [7]) and 6.74 in series [3] (setting [9]). The pKi in series [2] (setting [8]) is 8.62; in series [4] (setting [10]) it was more than 9.70. The molecule further gave a ring closure, isolated yield in series [6] (amide bond, 3 steps) of 66%.

For `COc1nccc2c1-c1cnc(N)c(c1)OC(C)c1cc(F)ccc1C(=O)N(C)C2` (stereo not drawn) [Example 45, 8-amino-13-fluoro-4-methoxy-11,17-dimethyl-17,18-dihydro-9,5-(metheno)pyrido[3,4-h][2,5,11]benzoxadiazacyclotetradecin-16(11H)-one], the pKi was 6.30 in series [2] (setting [8]) and less than 5.52 in series [4] (setting [10]). Further, the ring closure, yield after HPLC (amide bond, 12-membered ring, CMPI/DIEA, DMA, 10.0 mM, 0.0 °C) was found to be 4%.

Molecule `Cc1cnc2nc3c(n2c1)-c1cnc(N)c(n1)O[C@H](C)c1cc(F)ccc1C(=O)N(C)C3` showed a ring closure, yield of all isomers in series [5] (from Cc1cnc2nc(CN(C)C(=O)c3ccc(F)cc3[C@@H](C)Oc3nc(Br)cnc3N)cn2c1, Pd(OAc)2/cataCXium A, KOAc, tert-amyl alcohol, 30.0 mM, 120.0 °C, 2.0 h) of 50%.

Regarding `C[C@H]1Oc2nc(cnc2N)-c2c(nn(C)c2C#N)CN(C2CC2)C(=O)c2ccc(F)cc21` [Example 54, (10R)-7-amino-16-cyclopropyl-12-fluoro-2,10-dimethyl-15-oxo-10,15,16,17-tetrahydro-2H-8,4-(azeno)pyrazolo[4,3-h][2,5,11]benzoxadiazacyclotetradecine-3-carbonitrile], the pIC50 in series [1] (setting [7]) was 9.48; in series [3] (setting [9]), 8.52. Moreover, the pKi in series [2] (setting [8]) is 10.22; in series [4] (setting [10]) it was more than 10.15. The molecule further had a ring closure, isolated yield in series [6] (cc_pd bond, Pd(OAc)2/cataCXium A/PivOH/KOAc, t-AmOH/water (1 drop), 37.0 mM, […]) of 54%.

Take `C[C@H]1Oc2cc(cnc2N)-c2c(nn(C)c2C#N)CN(C)C(=O)c2ccccc21` [Example 71, (10R)-7-amino-2,10,16-trimethyl-15-oxo-10,15,16,17-tetrahydro-2H-8,4-(metheno)pyrazolo[4,3-h][2,5,11]benzoxadiazacyclotetradecine-3-carbonitrile]: the pIC50 was 7.99 in series [1] (setting [7]) and 6.77 in series [3] (setting [9]). Also, the negative logarithm of the Ki (pKi) is 8.43 in series [2] (setting [8]) and more than 9.60 in series [4] (setting [10]). Moreover, the ring closure, yield after HPLC (cc_pd bond, 12-membered ring, B2pin2/Pd(OAc)2/cataCXium A/CsF, MeOH/H2O, 12.7 mM, 100.0 °C) was found to be 13%.

On to `C[C@H]1Oc2cc(cnc2N)-c2c(n[nH]c2C#N)CN(C)C(=O)c2ccc(F)cc21` [Example 88, (10R)-7-amino-12-fluoro-10,16-dimethyl-15-oxo-10,15,16,17-tetrahydro-2H-8,4-(metheno)pyrazolo[4,3-h][2,5,11]benzoxadiazacyclotetradecine-3-carbonitrile], for which the figures for the pIC50 in series [1] (setting [7]) and in series [3] (setting [9]) were 7.81 and 6.72, respectively. The pKi in series [2] (setting [8]) is 9.41; in series [4] (setting [10]) it was 9.70. The ring closure, yield after HPLC (amide bond, 12-membered ring, HATU/DIEA, DMF, 8.3 mM, 0.0 °C) was 12%.

Take `C[C@H]1Oc2nc(cnc2N)-c2c(nn(C)c2C#N)CNC(=O)c2ccc(F)cc21` [Example 102, (10R)-7-amino-12-fluoro-2,10-dimethyl-15-oxo-10,15,16,17-tetrahydro-2H-8,4-(azeno)pyrazolo[4,3-h][2,5,11]benzoxadiazacyclotetradecine-3-carbonitrile]: the pIC50 was 7.93 in series [1] (setting [7]) and 7.08 in series [3] (setting [9]). For the same molecule, the pKi was 8.85 in series [2] (setting [8]) and 9.48 in series [4] (setting [10]). For the same molecule, the ring closure, isolated yield in series [6] (amide bond, KOH, MeOH, […], 2 steps) amounted to 28%.

As for `CCc1noc2c1-c1cnc(N)c(c1)O[C@H](C)c1cc(F)ccc1C(=O)N(C)C2` [Example 81, (10R)-7-amino-3-ethyl-12-fluoro-10,16-dimethyl-16,17-dihydro-8,4-(metheno)[1,2]oxazolo[4,5-h][2,5,11]benzoxadiazacyclotetradecin-15(10H)-one], the results for the pIC50 in series [1] (setting [7]) and in series [3] (setting [9]) were 8.65 and 7.28, respectively. Further, the pKi in series [2] (setting [8]) is 8.41; in series [4] (setting [10]) it was more than 8.73. Besides, the ring closure, yield after HPLC (cc_pd bond, 12-membered ring, Pd(OAc)2/cataCXium A/KOAc/PivOH, DMA, 50.0 mM, […]) was found to be 6%.

The molecule `Cc1cnc2nc3cn2c1-c1cnc(N)c(n1)O[C@H](C)c1cc(F)ccc1C(=O)N(C)C3` displayed a ring closure, yield after HPLC (cc_pd bond, Pd(OAc)2/cataCXium A/KOAc, t-amyl alcohol, 30.0 mM, 120.0 °C) of 7%.
